# Test results: patent US20110195924A1, “Methods of Inhibiting the Interaction Between S100P and the Receptor for Advanced Glycation End-Products” (priority 2008, published 2011)
# Legend:
# PC3 prostate cells = experiment: PC3 prostate cell proliferation; type: cell-based; settings: different concentrations; 24, 48, 72 hours
# Experimental: PC3 prostate cells were cultured for up to three days in the presence of different concentrations of cromolyn, and cell proliferation was analyzed at 24, 48, and 72 hours. *, P<0.05.
# Panc-1 cells = experiment: Panc-1 matrigel invasion assay; type: cell-based
# Experimental: FIGS. 2A-2D show the effect of cromolyn on pancreatic cancer cell invasion. Panc-1 and BxPC-3 cells were plated in Bio-coat matrigel and control chambers and cultured in serum-free culture media. After 24 hours non-invaded cells in the upper chamber were removed, and cells that invaded onto the lower surface of the membrane were counted from five adjacent fields. […] Data are expressed as the percent invasion through the matrigel matrix and membrane relative to migration through the control membrane. Means and 95% confidence intervals from three independent experiments performed in triplicate are shown. Two-tailed two-sample (unpaired) Student's t-tests were used to determine P values.
# Panc-1 and BxPC-3 cells were seeded in BIOCOAT matrigel invasion chambers and in control chambers without matrigel (Becton-Dickinson, Bedford, Mass.) according to the manufacturer's protocol. Panc-1 cells were seeded with S100P (100 nM) with or without cromolyn (100 μM), and BxPC-3 cells were seeded with or without cromolyn (1-100 μM). Briefly, 2.0×10^5 cells in 300 μL top solution (serum-free media) were added to each chamber and allowed to invade matrigel for 24 hours at 37° C. in a 5% CO2 atmosphere. The non-invading cells on the upper surface of membrane were removed from the chambers with a cotton swab, and the invading cells on the lower surface of the membrane were fixed and stained using a Diff-Quick stain kit (Becton Dickinson, Bedford, Mass.). After two washes with water, the chambers were allowed to air dry. The numbers of invading cells in five adjacent microscope fields per membrane were counted at 20× magnification to obtain the average number of cells per field. Data are expressed as the percent invasion through the matrigel matrix and membrane relative to the migration through the control membrane. The assays were performed three times.
structure (smiles),measurement,setting,value
"O=C(O)c1cc(=O)c2c(OCC(O)COc3cccc4oc(C(=O)O)cc(=O)c34)cccc2o1 [cromolyn, disodium 1,3-bis[(2′-carboxylatochromon-5′-yl)oxy]-2-hydroxypropane]",growth of PC3 cells,PC3 prostate cells,reduced growth
same,basal cell invasion,"Panc-1 cells; Panc-1, no S100P",did not reduce
same,"cells invaded, mean","Panc-1 cells; Panc-1, S100P 100 nM + cromolyn 100 μM, 24 hours",9.4%
same,"cells invaded, difference S100P versus S100P+cromolyn","Panc-1 cells; Panc-1, S100P 100 nM, cromolyn 100 μM, 24 hours",48.6%
